Source: publication PMC8068820 (Viruses, 2021)
Entries after “also recorded” stand apart in the source; their conditions may differ.

system: NTCP-HepG2 cells; test: MTT cytotoxicity assay in NTCP-HepG2 cells; assay type: cell-based, human; details: NTCP-HepG2 cells, 5, 50 and 300 µM, 6 h incubation

Row | Structure (SMILES) | Cytotoxicity (in words)
1 | O=C(Nc1ccc(Cl)cc1)c1cc(Oc2ccc(Cl)cc2)ccc1NS(=O)(=O)c1ccc(Cl)cc1 [A000028897] | obvious cytotoxicity even at low (5 µM) concentrations; also recorded: toxic
2 | O=Cc1cccc([C@@H]([C@H](Nc2ccccn2)c2ccccc2)[C@@H](O)c2ccccc2)n1 [S985852] | critical cytotoxicity at 300 µM

target: T1, human NTCP (Homo sapiens, UniProt Q14973); test: [3H]taurocholic acid ([3H]TC) transport inhibition in NTCP-HEK293 cells; assay type: cell-based; details: 1 µM [3H]TC, NTCP-HEK293 cells; read-out: IC50 taurocholic acid uptake inhibition (single value)
T1 construct: expressed in transfected cells
T1 sequence (Q14973 1-349): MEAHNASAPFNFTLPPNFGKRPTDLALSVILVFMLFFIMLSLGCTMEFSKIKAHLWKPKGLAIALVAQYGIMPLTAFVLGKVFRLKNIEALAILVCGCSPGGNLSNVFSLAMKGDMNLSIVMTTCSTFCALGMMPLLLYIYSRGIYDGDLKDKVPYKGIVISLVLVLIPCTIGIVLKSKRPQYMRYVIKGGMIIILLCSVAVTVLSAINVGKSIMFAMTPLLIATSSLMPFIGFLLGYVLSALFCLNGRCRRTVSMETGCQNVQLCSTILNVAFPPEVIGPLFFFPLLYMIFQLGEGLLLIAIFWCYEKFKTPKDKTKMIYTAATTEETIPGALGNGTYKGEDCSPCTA

Row | Structure (SMILES) | IC50 [µM]
3 | COc1ccc([C@H](O)[C@H](c2ccccn2)[C@@H](Nc2ccccn2)c2ccccc2)cc1 [A000295231] | 780
4 | O[C@H](c1ccc([C@@H](O)[C@@H](c2ccccn2)[C@H](Nc2ccccn2)c2ccccc2)cc1)[C@@H](c1ccccn1)[C@H](Nc1ccccn1)c1ccccc1 [S973509] | 490
5 | O=Cc1cccc([C@@H]([C@H](Nc2ccccn2)c2ccccc2)[C@@H](O)c2ccccc2)n1 [S985852] | 24

same assay, conditions: 100 µM inhibitor, Figure 6

Row | Structure (SMILES) | [3H]TC uptake inhibition (in words)
6 | O[C@@H](c1ccccc1)[C@H](c1ccccn1)[C@@H](Nc1ccccn1)c1ccccc1 [S957291] | significantly increased the inhibitory potency

same assay, conditions: 95% confidence interval; inhibition of 1 µM [3H]TC uptake, NTCP-HEK293 cells, 10 min, 37 °C; read-out: IC50 ([3H]TC Uptake)

Row | Structure (SMILES) | IC50 [µM]
7 | O=C(Nc1ccc(Cl)cc1)c1cc(Oc2ccc(Cl)cc2)ccc1NS(=O)(=O)c1ccc(Cl)cc1 [A000028897] | 16 to 62
8 | O[C@@H](c1ccccc1)[C@@H](c1ccccn1)[C@H](Nc1ccccn1)c1cccc(Br)c1 [A000289041] | > 1000
9 | O[C@H](c1ccccc1)[C@@H](c1ccc2ccccc2n1)[C@H](Nc1ccccn1)c1ccccc1 [A000295013] | > 1000
10 | COc1ccc([C@H](O)[C@H](c2ccccn2)[C@@H](Nc2ccccn2)c2ccccc2)cc1 [A000295231] | 341 to 1220
11 | COc1ccc(N[C@H](c2ccccc2)[C@H](c2ccccn2)[C@H](O)c2ccccc2)nc1 [A000295480] | 145 to 1320
12 | O[C@H](c1ccc([C@@H](O)[C@@H](c2ccccn2)[C@H](Nc2ccccn2)c2ccccc2)cc1)[C@@H](c1ccccn1)[C@H](Nc1ccccn1)c1ccccc1 [S973509] | 202 to 775
13 | O[C@@H](c1ccccc1)[C@@H](c1ccccn1)[C@H](Nc1ccccn1)c1cccc2ccccc12 [S973515] | 413 to 1240
14 | O=Cc1cccc([C@@H]([C@H](Nc2ccccn2)c2ccccc2)[C@@H](O)c2ccccc2)n1 [S985852] | 13 to 34

target: T1, human NTCP; test: [3H]preS1 peptide; assay type: binding; details: 5 nM [3H]preS1, NTCP-HEK293 cells; read-out: IC50 [3H]preS1 binding inhibition (single value)

Row | Structure (SMILES) | IC50 [µM]
15 | O[C@H](c1ccccc1)[C@@H](c1ccc2ccccc2n1)[C@H](Nc1ccccn1)c1ccccc1 [A000295013] | ~130
16 | COc1ccc([C@H](O)[C@H](c2ccccn2)[C@@H](Nc2ccccn2)c2ccccc2)cc1 [A000295231] | 17
17 | O[C@H](c1ccc([C@@H](O)[C@@H](c2ccccn2)[C@H](Nc2ccccn2)c2ccccc2)cc1)[C@@H](c1ccccn1)[C@H](Nc1ccccn1)c1ccccc1 [S973509] | 7
18 | O=Cc1cccc([C@@H]([C@H](Nc2ccccn2)c2ccccc2)[C@@H](O)c2ccccc2)n1 [S985852] | ~15

same assay, conditions: 100 µM inhibitor where from Figure 6; SAR statements

Row | Structure (SMILES) | [3H]preS1 binding inhibition (in words)
19 | O[C@@H](c1ccccc1)[C@@H](c1ccccn1)[C@H](Nc1ccccn1)c1cccc(Br)c1 [A000289041] | relatively high
20 | O[C@H](c1ccc2ccccc2c1)[C@H](c1ccccn1)[C@@H](Nc1ccccn1)c1ccccc1 [A000294559] | significant but less potent
21 | O[C@H](c1ccccc1)[C@@H](c1ccccn1)[C@H](Nc1ccc(F)cn1)c1ccccc1 [A000295230] | significant but less potent
22 | COc1ccc([C@H](O)[C@H](c2ccccn2)[C@@H](Nc2ccccn2)c2ccccc2)cc1 [A000295231] | even further improved the inhibitory potency
23 | O[C@H](c1ccccc1)[C@@H](c1ccccn1)[C@H](Nc1ccccc1)c1ccccc1 [A000295238] | inactive
24 | COc1ccc(N[C@H](c2ccccc2)[C@H](c2ccccn2)[C@H](O)c2ccccc2)nc1 [A000295480] | relatively high
25 | Nc1ccc([C@H](O)[C@H](c2ccccn2)[C@@H](Nc2ccccn2)c2ccccc2)cc1 [A000295724] | inactive
26 | O[C@@H](c1ccccc1)[C@H](c1ccccn1)[C@@H](Nc1ccc(Cl)cn1)c1ccccc1 [A000296575] | significant but less potent
27 | Oc1cccc([C@H](O)[C@H](c2ccccn2)[C@@H](Nc2ccccn2)c2ccccc2)c1 [A000296584] | significant, but less active inhibitors
28 | O[C@@H](c1ccccc1)[C@@H](c1ccccn1)[C@H](Nc1ccccn1)c1ccsc1 [A000344053] | significant but less potent
29 | O[C@@H](c1ccccc1)[C@H](c1ccccn1)[C@@H](Nc1ccccn1)c1ccccc1 [S957291] | significantly increased the inhibitory potency

Further lines, results first:

Row | [3H]preS1 binding inhibition (in words) | Structure (SMILES)
30 | inactive | O[C@@H](c1cccnc1)[C@H](c1ccccn1)[C@@H](Nc1ccccn1)c1ccccc1 [S958009]
31 | significant, but less active inhibitors | COc1cccc([C@H](O)[C@H](c2ccccn2)[C@@H](Nc2ccccn2)c2ccccc2)c1 [S963601]
32 | relatively high | O[C@@H](c1ccccc1)[C@@H](c1ccccn1)[C@H](Nc1ccccn1)c1cccc2ccccc12 [S973515]

same assay, conditions: 100 µM inhibitor, 5 nM [3H]preS1, pre-screen; read-out: remaining [3H]preS1 binding compared to untreated control

Row | Structure (SMILES) | remaining activity at 100 µM [%]
33 | O=C(Nc1ccc(Cl)cc1)c1cc(Oc2ccc(Cl)cc2)ccc1NS(=O)(=O)c1ccc(Cl)cc1 [A000028897] | < 50
34 | O[C@@H](c1ccccc1)[C@@H](c1ccccn1)[C@H](Nc1ccccn1)c1cccc(Br)c1 [A000289041] | < 50
35 | O[C@H](c1ccccc1)[C@@H](c1ccc2ccccc2n1)[C@H](Nc1ccccn1)c1ccccc1 [A000295013] | < 50
36 | COc1ccc([C@H](O)[C@H](c2ccccn2)[C@@H](Nc2ccccn2)c2ccccc2)cc1 [A000295231] | < 50
37 | COc1ccc(N[C@H](c2ccccc2)[C@H](c2ccccn2)[C@H](O)c2ccccc2)nc1 [A000295480] | < 50
38 | O[C@H](c1ccc([C@@H](O)[C@@H](c2ccccn2)[C@H](Nc2ccccn2)c2ccccc2)cc1)[C@@H](c1ccccn1)[C@H](Nc1ccccn1)c1ccccc1 [S973509] | < 50
39 | O[C@@H](c1ccccc1)[C@@H](c1ccccn1)[C@H](Nc1ccccn1)c1cccc2ccccc12 [S973515] | < 50
40 | O=Cc1cccc([C@@H]([C@H](Nc2ccccn2)c2ccccc2)[C@@H](O)c2ccccc2)n1 [S985852] | < 50

same assay, conditions: 100 µM inhibitor, 5 nM [3H]preS1; read-out: inhibition of [3H]preS1 peptide binding

Row | Structure (SMILES) | inhibition at 100 µM [%]
41 | O[C@H](c1ccc2ccccc2c1)[C@H](c1ccccn1)[C@@H](Nc1ccccn1)c1ccccc1 [A000294559] | ≤ 50
42 | O[C@H](c1ccccc1)[C@@H](c1ccccn1)[C@H](Nc1ccc(F)cn1)c1ccccc1 [A000295230] | ≤ 50
43 | O[C@@H](c1ccccc1)[C@H](c1ccccn1)[C@@H](Nc1ccc(Cl)cn1)c1ccccc1 [A000296575] | ≤ 50
44 | O[C@@H](c1ccccc1)[C@@H](c1ccccn1)[C@H](Nc1ccccn1)c1ccsc1 [A000344053] | ≤ 50

same assay, conditions: 95% confidence interval; inhibition of 5 nM [3H]preS1 binding, NTCP-HEK293 cells, 10 min, 37 °C; read-out: IC50 ([3H]preS1 Binding)

Row | Structure (SMILES) | IC50 [µM]
45 | O=C(Nc1ccc(Cl)cc1)c1cc(Oc2ccc(Cl)cc2)ccc1NS(=O)(=O)c1ccc(Cl)cc1 [A000028897] | 3 to 24
46 | O[C@@H](c1ccccc1)[C@@H](c1ccccn1)[C@H](Nc1ccccn1)c1cccc(Br)c1 [A000289041] | 35 to 224
47 | O[C@H](c1ccccc1)[C@@H](c1ccc2ccccc2n1)[C@H](Nc1ccccn1)c1ccccc1 [A000295013] | 73 to 194
48 | COc1ccc([C@H](O)[C@H](c2ccccn2)[C@@H](Nc2ccccn2)c2ccccc2)cc1 [A000295231] | 4 to 29
49 | COc1ccc(N[C@H](c2ccccc2)[C@H](c2ccccn2)[C@H](O)c2ccccc2)nc1 [A000295480] | 32 to 297
50 | O[C@H](c1ccc([C@@H](O)[C@@H](c2ccccn2)[C@H](Nc2ccccn2)c2ccccc2)cc1)[C@@H](c1ccccn1)[C@H](Nc1ccccn1)c1ccccc1 [S973509] | 3 to 10
51 | O[C@@H](c1ccccc1)[C@@H](c1ccccn1)[C@H](Nc1ccccn1)c1cccc2ccccc12 [S973515] | 39 to 148
52 | O=Cc1cccc([C@@H]([C@H](Nc2ccccn2)c2ccccc2)[C@@H](O)c2ccccc2)n1 [S985852] | 8 to 24

same assay, conditions: [3H]preS1 binding versus [3H]TC uptake inhibition

Row | Structure (SMILES) | virus/preS1 selectivity (in words)
53 | O=C(Nc1ccc(Cl)cc1)c1cc(Oc2ccc(Cl)cc2)ccc1NS(=O)(=O)c1ccc(Cl)cc1 [A000028897] | more or less non-selective
54 | COc1ccc([C@H](O)[C@H](c2ccccn2)[C@@H](Nc2ccccn2)c2ccccc2)cc1 [A000295231] | some selectivity towards the virus receptor function of NTCP
55 | COc1ccc(N[C@H](c2ccccc2)[C@H](c2ccccn2)[C@H](O)c2ccccc2)nc1 [A000295480] | more or less non-selective
56 | O[C@H](c1ccc([C@@H](O)[C@@H](c2ccccn2)[C@H](Nc2ccccn2)c2ccccc2)cc1)[C@@H](c1ccccn1)[C@H](Nc1ccccn1)c1ccccc1 [S973509] | some selectivity towards the virus receptor function of NTCP
57 | O=Cc1cccc([C@@H]([C@H](Nc2ccccn2)c2ccccc2)[C@@H](O)c2ccccc2)n1 [S985852] | more or less non-selective

system: HDV; test: In vitro HDV infection of NTCP-HepG2 cells (HDAg immunostaining); assay type: cell-based, Hepatitis D virus; details: 5 µM to 300 µM

Row | Structure (SMILES) | inhibition of in vitro HDV infection (in words)
58 | COc1ccc([C@H](O)[C@H](c2ccccn2)[C@@H](Nc2ccccn2)c2ccccc2)cc1 [A000295231] | significant concentration-dependent inhibition; also recorded: active against in vitro HDV infection
59 | O[C@H](c1ccc([C@@H](O)[C@@H](c2ccccn2)[C@H](Nc2ccccn2)c2ccccc2)cc1)[C@@H](c1ccccn1)[C@H](Nc1ccccn1)c1ccccc1 [S973509] | significant concentration-dependent inhibition; also recorded: active against in vitro HDV infection
60 | O=Cc1cccc([C@@H]([C@H](Nc2ccccn2)c2ccccc2)[C@@H](O)c2ccccc2)n1 [S985852] | significant concentration-dependent inhibition; also recorded: active against in vitro HDV infection
